These are literature values, as cited in US20110038852A1, “ANTIVIRALS THAT TARGET TRANSPORTERS, CARRIERS, AND ION CHANNELS” (3-V BIOSCIENCES, INC., priority 2009, published 2011).

For one data set, the system named is rhinoviral infections. Particulars: volunteers, clinical trials.

Take Interferon-alpha: the side effects result in the data set on rhinovirus infections (human, in vivo) is “nasal bleeding”. Besides, the “effect against rhinovirus infections” value in the data set on rhinovirus infections (used intranasally) is on record as “effective”.
Turning to `Cc1cc(CCCOc2c(C)cc(-c3noc(C(F)(F)F)n3)cc2C)on1` [Pleconaril], the “mucus secretions and illness-associated symptoms” value with rhinoviral infections is recorded as “significant decrease”.
